According to patent publication EP0453621A1, “Polymer-modified drugs having enhanced biological and pharmacological activities” (W.R. Grace & Co.-Conn., priority 1990, dated 1991):
pIC50: −log10 of the molar value. Ends that are not written are not given here. Peptide text beside a SMILES is read from it.

Assays:
[1] = Circulatory half-life of radioiodinated peptide or conjugate after tail vein injection; assay type: in vivo, C57B1/6 mice; conditions: i.v. tail vein
Description: The conjugate from Example XIII was passed over a disposable Sephadex G25 column (PD10 from Pharmacia, Inc.) to separate free from polymer-bound peptide. Confirmation of the purity of the conjugate was obtained by HPLC. About 45 µg of conjugate (based on peptide) were radiolabeled with 125-iodine using the well known chloramine-T procedure. Free 125-iodine was separated from radiolabeled conjugate using a PD10 column. Of the original 30 µCi of Na¹²⁵I used for the iodination, more than 23 µCi were incorporated into the conjugate.
Portions of the radiolabeled YRGDS-Prepolymer A conjugate from Example XIV were injected into the tail veins of C57B1/6 mice. As a control, YRGDS free peptide was radioiodinated by the procedure described in Example XIV and also injected. At various times blood was withdrawn from the animals and the amount of radioiodine remaining in the circulation determined using a gamma counter. A biphasic clearance curve (α:β) was obtained for both species. […] Thus by coupling the peptide to this polymer its clearance rate from the circulation is markedly extended.

B16 cell = experiment: Inhibition of B16 cell spreading on a plate coated with fibronectin; conditions: the conjugate value is based on octapeptide, read-out: concentration for 50% inhibition of cell spreading
Description: The biological activity of the conjugate formed in Example XV was determined in an assay which measures inhibition of B16 cell spreading on a plate coated with fibronectin.

N=C(N)NCCC[C@H](NC(=O)[C@@H](N)Cc1ccc(O)cc1)C(=O)NCC(=O)N[C@@H](CC(=O)O)C(=O)N[C@@H](CO)C(=O)O [YRGDS, tyr-arg-gly-asp-ser] (H-YRGDS-OH)
t½α ([1]; first phase of biphasic clearance): 30 s | label cleared in initial phase ([1]; in one minute, 125-iodine label): about 75%

GRGDSPAC-Prepolymer A conjugate: peptide gly-arg-gly-asp-ser-pro-ala-cys (SEQ. ID No. 3) conjugated with Prepolymer A (also: conjugated with Prepolymer A, site not given here)
pIC50 (B16 cell): 3.47
